Experiment [1] deals with Ptchd1 KO mice. Description: Open field test of locomotor activity, Ptchd1 KO mice. Format: in vivo. As to conditions: 90 minutes. As for the experimental part: For performing the open field test, mice were allowed to habituate to the behavioral testing room for 1 hour before the experiment. The locomotor activity in mice was evaluated over a 90 minute period in an automated Omnitech Digiscan apparatus (AccuScan Instruments). Locomotor activity was assessed as total distance traveled (m). For drug treatment experiments, mice received an intraperitoneal injection 15 minutes before the assay and then where placed kindly in the left corner, head facing into the corner.
The effects of mGluR2/3 activation on the locomotor activity of WT mice and Ptchd1 mutant mice were evaluated. In brief, all mice were treated with mGluR2/3 agonist, LY379268, at three different dosages (1 mg/kg, 5 mg/kg and 10 mg/kg) for open-field testing.
Here, whether mGluR3 activation would rescue the hyperactivity phenotype of Ptchd1 KO mice was evaluated. Locomotor activity estimated as total distance travelled (in) was assessed over a 90 min period in an automated Omnitech Digiscan apparatus. For drug treatment experiments, mice were placed in the open-field arena for 30 minutes prior to Mavalon 63 (5 mg/kg and 10 mg/kg in saline; i.p.), or vehicle injections before being returned to the arena.

In experiment [2] the test system is Ptchd1 KO mice. Description: Auditory GO/NO GO noise filtering test, Ptchd1 KO mice. It counts as in vivo. Particulars: LY379268 5 mg/kg i.p. As for the experimental part: Behavioral Training and Testing was conducted. In brief, behavioral training and testing took place in grid-floor mounted, custom-built enclosures made of acrylic plastic (dimensions in cm: length: 15.2; width: 12.7; height: 24). All enclosures contained custom-designed operant ports, each of which was equipped with an IR LED/IR phototransistor pair (Digikey, Thief River Falls, Minn.) for nose-poke detection. Trial initiation was achieved through an initiation port mounted on the grid floor 6 cm away from the ‘response ports’ located at the front of the chamber. A pair of electrostatic speakers (Tucker Davis Technologies) producing the auditory stimuli were placed outside of the training apparatus and sound stimuli were conveyed via cylindrical tubes to apertures located at either side of the initiation port, allowing delivery of stereotypical stimuli across trials. All stimuli across tasks were generated by a TDT Rx8 sound system (Tucker-Davis Technologies, Alachua, Fla.). Sound stimuli were recorded and assessed for intensity using a prepolarized icp array microphone (PCB Piezotronics, Depew, N.Y.) after which frequency production was equalized using a software-based calibration via SigCalRP (Tucker-Davis Technologies, Alachua Fla.). […]
The sequence of “NO GO” stimuli followed a pre-determined pseudorandomized sequence which was shifted across testing sessions. […]

Molecules are shown by their SMILES. Entries after “also recorded” stand apart in the source; their conditions may differ.

As to `N[C@@]1(C(=O)O)COC2C(C(=O)O)C21` (stereo in doubt) [LY379268, (1R,4R,5S,6R)-4-Amino-2-oxabicyclo[3.1.0] hexane-4,6-dicarboxylic acid], the total distance traveled entry in experiment [1] (LY379268 5 mg/kg i.p.) and in experiment [1] (LY379268 10 mg/kg i.p.) was “traveled significantly less distances to a comparable level of wild type mice” each time. In addition, the “percentage of correct responses, auditory stimuli embedded with noise” value in experiment [2] is “fully rescued noise filtering deficits in the Ptchd1 KO to control level; also recorded: rescued to control levels”.

These data come from US20220313650A1, “METHODS FOR TREATING NEURODEVELOPMENTAL DISORDERS” (The Broad Institute, Inc., priority 2019, published 2022).
